# According to patent US20230416199A1, “INHIBITORS OF AMINO ACID TRANSPORT” (ICAHN SCHOOL OF MEDICINE AT MOUNT SINAI, priority 2020, published 2023):
# Experiments:
# rASCT2 = molecular target: T1, rASCT2 (Rattus norvegicus, UniProt D3ZJ25); assay: Electrophysiology (whole-cell current recording) of transfected HEK293 cells, rASCT2; type: cell-based; conditions: apparent Ki in the absence of substrate, HEK293, mean ± SD; read-out: Ki rASCT2
# T1 construct: expressed in transfected cells; host or cells: HEK293 (ATCC CRL-11268), transient transfection
# T1 sequence (D3ZJ25 1-555): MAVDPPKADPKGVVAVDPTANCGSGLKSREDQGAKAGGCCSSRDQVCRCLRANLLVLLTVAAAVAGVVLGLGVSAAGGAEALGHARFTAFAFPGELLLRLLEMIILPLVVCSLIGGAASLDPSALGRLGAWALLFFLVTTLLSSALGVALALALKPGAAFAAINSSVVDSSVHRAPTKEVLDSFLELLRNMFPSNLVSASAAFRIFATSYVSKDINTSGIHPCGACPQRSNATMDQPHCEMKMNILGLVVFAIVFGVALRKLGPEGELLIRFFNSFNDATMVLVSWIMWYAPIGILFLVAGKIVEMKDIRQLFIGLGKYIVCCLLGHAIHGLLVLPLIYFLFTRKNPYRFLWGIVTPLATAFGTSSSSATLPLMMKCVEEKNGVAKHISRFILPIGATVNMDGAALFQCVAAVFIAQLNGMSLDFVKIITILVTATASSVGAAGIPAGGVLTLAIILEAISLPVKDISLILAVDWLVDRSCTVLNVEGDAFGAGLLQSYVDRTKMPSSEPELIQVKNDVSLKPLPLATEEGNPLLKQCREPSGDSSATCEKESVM
# Method: (§1) Human embryonic kidney 293 (HEK293, ATCC CRL-11268) cells were cultured in DMEM media supplemented with 10% (v v) fetal bovine serum (FBS), 2 mM glutamine, 1% penicillin streptomycin solution, 1 mM sodium pyruvate and non-essential amino acids. Cells were maintained at 37° C. in a fully humidified atmosphere containing 5% CO2. rASCT2, hASCT2, hASCT1, EAAT1, EAAT2, EAAC1, EAAT5 and YFP complementary DNAs were each used to transiently transfect HEK293 using POLYPLUS Jet-prime transfection reagent. Cells were analyzed using electrophysiological techniques 24-40 hours after transfection.
# (§2) Stock solutions of inhibitor was prepared in dimethyl sulfoxide (DMSO) up to 100 mM. Dilutions to working concentrations were made using external buffer. […] For rASCT2, hASCT2 and hASCT1, external buffer contained 140 mM NaCl, 2 mM MgCl2, 2 mM CaCl2), and 10 mM HEPES, pH 7.40 while internal pipette solution comprised of 130 mM NaSCN, 2 mM MgCl2, 10 mM EGTA, 10 mM HEPES and 10 mM alanine, pH 7.40. For specificity experiments with EAAT1, EAAT2, EAAC1 and EAAT5, internal solution contained 10 mM glutamate instead of alanine. Compounds were applied to HEK293 cells expressing DNA of interest suspended from a current recording electrode in whole cell configuration through a rapid solution exchange device. Cells are immersed in external buffer bath used to dissolve the inhibitors. The open pipette resistance was between 3 and 6 MΩ. Series resistance was not compensated in these experiments due to relatively small currents. Currents traces were recorded using an Adams and List EPC7 amplifier and digitized using a Molecular Devices Digidata A/D converter.
# (§3) Linear and nonlinear curve fitting of the experimental data were analyzed using MicroCal Origin software. Nonlinear dose-response relationships were fitted with a Michaelis-Menten-like equation to obtain apparent Ki values in the absence of substrate (see TABLE 2 for Ki values). The figures show representative current traces and dose-response curves for hACST2 and rASCT2, used to obtain Ki values in TABLE 2 for compound SN 40. At least four experiments were performed with at least three different cells. Error bars in all graphs, e.g., in FIG. 1B and FIG. 1C and tables (Ki values) represent mean±SD.
# hASCT2 = molecular target: T2, hASCT2 (Homo sapiens, UniProt Q15758); assay: Electrophysiology (whole-cell current recording) of transfected HEK293 cells, hASCT2; type: cell-based; conditions: apparent Ki in the absence of substrate, HEK293, mean ± SD; read-out: Ki hASCT2
# T2 construct: expressed in transfected cells; host or cells: HEK293 (ATCC CRL-11268), transient transfection
# T2 sequence (Q15758 1-541): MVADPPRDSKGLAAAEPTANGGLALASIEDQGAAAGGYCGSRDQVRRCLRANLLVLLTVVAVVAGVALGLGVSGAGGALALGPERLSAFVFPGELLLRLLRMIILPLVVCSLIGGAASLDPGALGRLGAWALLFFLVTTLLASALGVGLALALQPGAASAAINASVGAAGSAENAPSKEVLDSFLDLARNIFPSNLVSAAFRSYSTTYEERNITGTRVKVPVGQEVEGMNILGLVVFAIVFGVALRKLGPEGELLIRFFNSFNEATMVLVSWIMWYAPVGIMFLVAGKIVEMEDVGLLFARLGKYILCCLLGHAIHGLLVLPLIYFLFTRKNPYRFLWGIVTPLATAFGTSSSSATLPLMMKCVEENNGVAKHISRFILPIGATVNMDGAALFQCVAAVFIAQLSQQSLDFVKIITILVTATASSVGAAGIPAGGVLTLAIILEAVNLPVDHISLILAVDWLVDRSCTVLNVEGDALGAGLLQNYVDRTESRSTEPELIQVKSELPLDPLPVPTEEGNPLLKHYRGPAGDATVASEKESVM
# Method: as §1, §2, §3
SMILES,Ki (rASCT2) [µM],Ki (hASCT2) [µM]
Cc1ccccc1-c1ccc(C(=O)O[C@@H]2CN[C@H](C(=O)O)C2)cc1 [SN 10],0.97 ± 0.1,1.12 ± 0.1
O=C(O[C@@H]1CN[C@H](C(=O)O)C1)c1ccc(-c2ccccc2)nc1 [SN 19],0.89 ± 0.2,7.93 ± 0.9
N[C@@H](COC(=O)c1ccc(NC(=O)c2ccccc2)cc1)C(=O)O [SN 25],4.4 ± 1.5,22.6 ± 3.7
O=C(O)[C@@H]1C[C@H](OCc2ccc(-c3ccccc3)cc2)CN1 [SN 39],1.13 ± 0.1,0.98 ± 0.1

# Other lines, results leading:
Ki (rASCT2) [µM],Ki (hASCT2) [µM],SMILES
0.73 ± 0.1,0.87 ± 0.1,O=C(O[C@@H]1CN[C@H](C(=O)O)C1)c1ccc(-c2ccccc2)cc1 [SN 05]
0.65 ± 0.04,0.74 ± 0.1,O=C(O[C@@H]1CN[C@H](C(=O)O)C1)c1ccc(-c2ccc(F)cc2)cc1 [SN 08]
0.27 ± 0.05,1.05 ± 0.2,O=C(O[C@@H]1CN[C@H](C(=O)O)C1)c1ccc(-c2ccc(C(F)(F)F)cc2)cc1 [SN 09]
0.87 ± 0.1,9.13 ± 1.7,Cc1ccccc1-c1ccc(C(=O)O[C@@H]2CN[C@H](C(=O)O)C2)cc1C [SN 11]
